The supplement of paper PMC10307832

Tests used:
Assay in all cases: relative viability (nuclei count vs DMSO), 5 days (fraction); higher = more cells survive
MK-8033 + Luminespib = compound: Cn1cc(-c2cnc3ccc4ccc(CS(=O)(=O)NCc5ccccn5)cc4c(=O)c3c2)cn1 [MK-8033] + CCNC(=O)c1noc(-c2cc(C(C)C)c(O)cc2O)c1-c1ccc(CN2CCOCC2)cc1 [Luminespib] (partner 0.01 µM)
Method in brief: (§1)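 Each reported value is a median over duplicate plates. It expresses relative viability: treated-well nuclei count divided by vehicle-well nuclei count. Lung cancer cell lines in 1536-well plates were dosed by pin tool a day after seeding, alone with one drug or with a fixed anchor-drug dose plus five library-drug doses (not always all listed) in √10 steps, and nuclei were counted after 5 days.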

RU-SKI 43 + Crizotinib = compound: CC[C@@H](C)CNCC(=O)N1CCC2=C([C@@H]1COC3=CC=CC(=C3)C)C=CS2 [RU-SKI 43] + C[C@@H](Oc1cc(-c2cnn(C3CCNCC3)c2)cnc1N)c1c(Cl)ccc(F)c1Cl [Crizotinib] (partner 1 µM)
Method in brief: as §1

Irinotecan + Decitabine = compound: CCc1c2c(nc3ccc(OC(=O)N4CCC(N5CCCCC5)CC4)cc13)-c1cc3c(c(=O)n1C2)COC(=O)[C@]3(O)CC [Irinotecan] + Nc1ncn([C@H]2C[C@H](O)[C@@H](CO)O2)c(=O)n1 [Decitabine] (partner 2 µM)
Method in brief: as §1

RU-SKI 43 + Bortezomib = compound: CC[C@@H](C)CNCC(=O)N1CCC2=C([C@@H]1COC3=CC=CC(=C3)C)C=CS2 [RU-SKI 43] + CC(C)C[C@H](NC(=O)[C@H](Cc1ccccc1)NC(=O)c1cnccn1)B(O)O [Bortezomib] (partner 0.002 µM)
Method in brief: as §1

| Cell Line | relative viability (MK-8033 + Luminespib; first compound 0.02 µM) | relative viability (MK-8033 + Luminespib; first compound 0.06325 µM) | relative viability (MK-8033 + Luminespib; first compound 0.2 µM) | relative viability (MK-8033 + Luminespib; first compound 0.6325 µM) | relative viability (MK-8033 + Luminespib; first compound 2 µM) | relative viability (RU-SKI 43 + Crizotinib; first compound 0.1 µM) | relative viability (RU-SKI 43 + Crizotinib; first compound 1 µM) | relative viability (RU-SKI 43 + Crizotinib; first compound 3.162 µM) | relative viability (RU-SKI 43 + Crizotinib; first compound 10 µM) | relative viability (Irinotecan + Decitabine; first compound 0.6325 µM) | relative viability (Irinotecan + Decitabine; first compound 2 µM) | relative viability (Irinotecan + Decitabine; first compound 6.325 µM) | relative viability (Irinotecan + Decitabine; first compound 20 µM) | relative viability (RU-SKI 43 + Bortezomib; first compound 0.1 µM) | relative viability (RU-SKI 43 + Bortezomib; first compound 0.3162 µM) | relative viability (RU-SKI 43 + Bortezomib; first compound 1 µM) | relative viability (RU-SKI 43 + Bortezomib; first compound 3.162 µM) | relative viability (RU-SKI 43 + Bortezomib; first compound 10 µM) | relative viability (RU-SKI 43 + Crizotinib; first compound 0.3162 µM) |
| --- | --- | --- | --- | --- | --- | --- | --- | --- | --- | --- | --- | --- | --- | --- | --- | --- | --- | --- | --- |
| LCLC-97TM1 | 0.883 | 0.662 | 0.709 | 0.845 | 0.669 | 0.424 | 0.331 | 0.267 | 0.287 | 0.135 | 0.107 | 0.105 | 0.115 | 0.852 | 0.827 | 1.79 | 0.684 | 0.645 |  |
| EMC-BAC-2 | 1.2 | 1.07 | 1.12 | 1.16 | 1.12 | 0.789 | 0.811 | 0.828 | 0.751 | 0.933 | 0.719 | 0.432 | 0.277 | 1.14 | 1.13 | 1.11 | 1.11 | 1.04 | 0.793 |
| NCI-H647 | 0.119 | 0.178 | 0.213 | 0.151 | 0.154 | 1.29 | 1.15 | 1.14 | 0.833 | 0.39 | 0.238 | 0.157 | 0.159 | 0.956 | 0.841 | 1.08 | 1.25 | 1.14 | 1.23 |
| PC-3 [JPC-3] | 0.728 | 0.618 | 0.713 | 0.663 | 0.713 | 0.918 | 0.998 | 0.922 | 0.963 | 0.805 | 0.927 | 0.655 | 0.365 | 0.848 | 0.747 | 0.82 | 0.881 | 0.827 | 1.14 |
| SK-LU-1 | 0.188 | 0.236 | 0.223 | 0.188 | 0.192 | 0.799 | 0.969 | 0.971 | 0.898 | 0.498 | 0.504 | 0.423 | 0.25 | 1.37 | 1.18 | 1.39 | 1.15 | 1.24 | 1.02 |
| NCI-H1975 | 0.195 | 0.24 | 0.176 | 0.203 | 0.15 | 1.04 | 1.12 | 0.925 | 0.709 | 0.374 | 0.438 | 0.342 | 0.141 | 0.441 | 0.421 | 0.464 | 0.4 | 0.34 | 1.3 |
| HARA | 0.675 | 0.621 | 0.681 | 1.03 | 0.557 | 1.16 | 1.08 | 1.18 | 0.975 | 0.481 | 0.318 | 0.284 | 0.283 | 1.22 | 1.19 | 1.13 | 1.18 | 1.14 | 0.971 |
